IC50 and solubility data for 20 molecules are collected here from ChEMBL document CHEMBL3286236, “Novel aromatic-polyamine conjugates as cholinesterase inhibitors with notable selectivity toward butyrylcholinesterase” (Bioorg Med Chem, 2014).

Molecules are shown by their SMILES.

One data set has as its target Acetylcholinesterase (Electrophorus electricus, UniProt O42275).
A further data set addresses Cholinesterase (Equus caballus, UniProt P81908).
The next data set relates to HepG2. The data set is described as follows: cells. Particulars: Homo sapiens, HepG2, 48 h.
Data set [1] is described as follows: Solubility of the compound. The data set is classed as physicochemical.

Cholinesterase, sequence (P81908 whole entry): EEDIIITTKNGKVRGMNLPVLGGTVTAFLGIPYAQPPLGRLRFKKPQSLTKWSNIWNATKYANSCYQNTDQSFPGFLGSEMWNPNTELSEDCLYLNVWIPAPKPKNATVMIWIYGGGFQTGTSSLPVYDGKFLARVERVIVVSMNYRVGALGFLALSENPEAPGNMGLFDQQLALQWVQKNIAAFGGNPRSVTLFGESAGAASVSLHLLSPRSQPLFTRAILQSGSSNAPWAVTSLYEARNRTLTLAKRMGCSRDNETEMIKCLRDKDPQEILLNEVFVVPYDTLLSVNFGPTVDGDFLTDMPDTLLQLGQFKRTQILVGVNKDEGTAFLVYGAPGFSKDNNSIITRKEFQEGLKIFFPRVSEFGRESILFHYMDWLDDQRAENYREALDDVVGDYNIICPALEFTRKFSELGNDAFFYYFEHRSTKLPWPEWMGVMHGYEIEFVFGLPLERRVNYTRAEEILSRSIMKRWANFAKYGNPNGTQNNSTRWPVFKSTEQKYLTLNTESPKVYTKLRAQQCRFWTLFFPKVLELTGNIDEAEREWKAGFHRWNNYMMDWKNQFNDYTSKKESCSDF
Acetylcholinesterase, sequence (O42275 whole entry): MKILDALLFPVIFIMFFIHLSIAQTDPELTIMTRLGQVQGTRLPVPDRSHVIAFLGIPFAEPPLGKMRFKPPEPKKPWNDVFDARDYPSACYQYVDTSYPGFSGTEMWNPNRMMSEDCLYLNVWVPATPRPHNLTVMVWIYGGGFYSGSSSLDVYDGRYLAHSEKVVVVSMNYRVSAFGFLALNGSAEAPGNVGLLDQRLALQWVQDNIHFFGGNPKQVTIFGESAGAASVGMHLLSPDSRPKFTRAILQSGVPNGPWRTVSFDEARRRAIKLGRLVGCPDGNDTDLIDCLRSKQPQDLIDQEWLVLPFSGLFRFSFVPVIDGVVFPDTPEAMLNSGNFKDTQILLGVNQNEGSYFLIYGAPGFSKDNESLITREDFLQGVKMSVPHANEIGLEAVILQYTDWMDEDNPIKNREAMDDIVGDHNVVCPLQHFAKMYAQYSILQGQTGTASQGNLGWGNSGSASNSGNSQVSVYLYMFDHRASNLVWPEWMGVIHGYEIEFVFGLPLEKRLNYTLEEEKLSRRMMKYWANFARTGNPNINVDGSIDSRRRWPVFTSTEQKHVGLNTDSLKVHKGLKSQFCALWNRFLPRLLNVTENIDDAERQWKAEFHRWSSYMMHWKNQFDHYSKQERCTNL
Description for Acetylcholinesterase: Inhibition of electric eel AChE using acetylthiocholine chloride as substrate by spectrophotometer analysis

Consider `NCCCNCC(=O)Nc1c2ccccc2cc2ccccc12`, for which the IC50 against Acetylcholinesterase is more than 50 µM; on Cholinesterase it was 0.28 µM; in the data set on HepG2, more than 100 µM.

With `NCCCNCCCNCC(=O)Nc1c2ccccc2cc2ccccc12`, the IC50 at Acetylcholinesterase was more than 50 µM; at Cholinesterase, 0.305 µM; with HepG2, more than 100 µM.

Turning to `CN(C)CCNCC(=O)Nc1c2ccccc2cc2ccccc12`, the values for the IC50 against Acetylcholinesterase, on Cholinesterase and in the data set on HepG2 were more than 50 µM, 0.161 µM and more than 100 µM, respectively.

Regarding `Cl.O=C(CNC1CC1)Nc1c2ccccc2cc2ccccc12`, the solubility entry in data set [1] was “Insoluble”.

As to `O=C(CNCCCO)Nc1c2ccccc2cc2ccccc12`, the values for the half-inhibitory concentration (IC50) on Acetylcholinesterase, at Cholinesterase and in the data set on HepG2 were more than 50 µM, 0.502 µM and more than 100 µM, respectively.

On to `NCCCNCCCCNCC(=O)Nc1c2ccccc2cc2ccccc12`, for which the IC50 on Acetylcholinesterase was 25.1 µM; against Cholinesterase it was 0.164 µM; with HepG2, more than 100 µM.

Take `NCCCCNCC(=O)Nc1cccc2c1C(=O)c1ccccc1C2=O`: the figures for the IC50 against Acetylcholinesterase, at Cholinesterase and in the data set with HepG2 were 1.5 µM, more than 50 µM and 24.2 µM, respectively.

`O=C(CNCCCO)Nc1cccc2ccccc12`: the results for the IC50 against Acetylcholinesterase, at Cholinesterase and in the data set on HepG2 were more than 50 µM, more than 50 µM and more than 100 µM, respectively.

Consider `NCCCCNCC(=O)Nc1c2ccccc2cc2ccccc12`, for which the results for the IC50 at Acetylcholinesterase, on Cholinesterase and with HepG2 were more than 50 µM, 0.016 µM and more than 100 µM, respectively.

For the molecule `NCCCCNCC(=O)Nc1cccc2ccccc12`, the IC50 at Acetylcholinesterase was more than 50 µM; against Cholinesterase it was 10.3 µM; in the data set on HepG2, more than 100 µM.

In the case of `NCCCNCCCCNCCCNCC(=O)Nc1cccc2c1C(=O)c1ccccc1C2=O`, the IC50 on Acetylcholinesterase was 7.22 µM; on Cholinesterase it was more than 50 µM; in the data set with HepG2, 11.5 µM.

With `NCCCNCCCCNCC(=O)Nc1cccc2c1C(=O)c1ccccc1C2=O`, the results for the concentration for half-maximal inhibition (IC50) on Acetylcholinesterase, against Cholinesterase and with HepG2 were 2.63 µM, 33 µM and 15.6 µM, respectively.

Consider `NCCCNCCCCNCCCNCC(=O)Nc1c2ccccc2cc2ccccc12`, for which the IC50 against Acetylcholinesterase was more than 50 µM; against Cholinesterase, 0.657 µM; in the data set with HepG2 it was more than 100 µM.

In the data set on HepG2, `O=C1c2c(O)ccc(O)c2C(=O)c2c(NCCNCCO)ccc(NCCNCCO)c21` [MITOXANTRONE] displayed a half-maximal inhibitory concentration (IC50) of 11.1 µM.

Take `NCCCNCCCCNCC(=O)Nc1cccc2ccccc12`: the IC50 on Acetylcholinesterase is more than 50 µM; on Cholinesterase, 47.5 µM; in the data set on HepG2, more than 100 µM.

For the molecule `NCCCNCCCCNCCCNCC(=O)Nc1cccc2ccccc12`, the IC50 is more than 50 µM on Acetylcholinesterase, more than 50 µM at Cholinesterase and more than 100 µM in the data set on HepG2.

For `NCCCCCCNCC(=O)Nc1c2ccccc2cc2ccccc12`, the figures for the IC50 against Acetylcholinesterase, against Cholinesterase and in the data set with HepG2 were 2.74 µM, 0.023 µM and more than 100 µM, respectively.

Consider `O=C(CNCCCO)Nc1cccc2c1C(=O)c1ccccc1C2=O`, for which the figures for the IC50 at Acetylcholinesterase, on Cholinesterase and in the data set with HepG2 were 11.1 µM, more than 50 µM and 23 µM, respectively.

In the case of `CCN(CC)CC(=O)Nc1c2ccccc2cc2ccccc12.Cl`, the solubility entry in data set [1] was “Insoluble”.

For `CN(C)CCNCC(=O)Nc1cccc2ccccc12`, the IC50 against Acetylcholinesterase was more than 50 µM; on Cholinesterase, 4.39 µM; in the data set with HepG2, more than 100 µM.
